Laboratory results reported in PubChem BioAssay (NCI).
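A five-concentration, 48-hour dose response in 96-well plates underlies each endpoint, interpolated linearly between surrounding concentrations. GI50 is the concentration that inhibits growth by half. TGI denotes the concentration required for complete inhibition of growth.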

Experiments:
Assay in all cases: NCI tumour cell line growth inhibition, 48 h
[1] = test system: SR leukemia
[2] = test system: HOP-62 NSCLC
[3] = test system: OVCAR-4 ovarian
[4] = test system: HCT-15 colon
[5] = test system: KM12 colon
[6] = test system: SK-MEL-28 melanoma
[7] = test system: SK-OV-3 ovarian
[8] = test system: IGROV1 ovarian
[9] = test system: MDA-MB-231 breast
[10] = test system: OVCAR-8 ovarian
[11] = test system: MDA-MB-435
[12] = test system: HCT-116 colon
[13] = test system: BT-549 breast
[14] = test system: U251 CNS
[15] = test system: RXF 393 renal
[16] = test system: M14 melanoma
[17] = test system: CAKI-1 renal
[18] = test system: A498 renal
[19] = test system: K-562 leukemia
[20] = test system: SF-295 CNS
[21] = test system: SNB-75 CNS
[22] = test system: OVCAR-3 ovarian
[23] = test system: SF-268 CNS
[24] = test system: HCC-2998 colon
[25] = test system: HT29 colon
[26] = test system: UACC-257 melanoma
[27] = test system: UO-31 renal
[28] = test system: SW-620 colon
[29] = test system: SF-539 CNS
[30] = test system: MOLT-4 leukemia
[31] = test system: NCI/ADR-RES ovarian
[32] = test system: NCI-H522 lung
[33] = test system: RPMI-8226 leukemia
[34] = test system: UACC-62 melanoma
[35] = test system: 786-0 renal
[36] = test system: SK-MEL-2 melanoma
[37] = test system: ACHN renal
[38] = test system: TK-10 renal
[39] = test system: MALME-3M melanoma
[40] = test system: OVCAR-5 ovarian
[41] = test system: NCI-H23 lung
[42] = test system: SN12C renal
[43] = test system: LOX IMVI melanoma
[44] = test system: PC-3 prostate
[45] = test system: NCI-H226 lung
[46] = test system: A549 NSCLC
[47] = test system: HS 578T breast
[48] = test system: CCRF-CEM leukemia
[49] = test system: HL-60(TB) leukemia
[50] = test system: SK-MEL-5 melanoma
[51] = test system: COLO 205 colon
[52] = test system: SNB-19 CNS
[53] = test system: DU-145 prostate
[54] = test system: MCF7 breast
[55] = test system: EKVX NSCLC
[56] = test system: NCI-H460 lung

SMILES: O=C1c2ccccc2C(=O)N1c1ccc(S(=O)(=O)Nc2ncccn2)cc1
- GI50 [1]: > 100 µM
- TGI [1]: > 100 µM
- GI50 [2]: > 100 µM
- TGI [2]: > 100 µM
- GI50 [3]: > 100 µM
- TGI [3]: > 100 µM
- GI50 [4]: > 100 µM
- TGI [4]: > 100 µM
- GI50 [5]: > 100 µM
- TGI [5]: > 100 µM
- GI50 [6]: > 100 µM
- TGI [6]: > 100 µM
- GI50 [7]: > 100 µM
- TGI [7]: > 100 µM
- GI50 [8]: > 100 µM
- TGI [8]: > 100 µM
- GI50 [9]: > 100 µM
- TGI [9]: > 100 µM
- GI50 [10]: > 100 µM
- TGI [10]: > 100 µM
- GI50 [11]: > 100 µM
- TGI [11]: > 100 µM
- GI50 [12]: > 100 µM
- TGI [12]: > 100 µM
- GI50 [13]: > 100 µM
- TGI [13]: > 100 µM
- GI50 [14]: > 100 µM
- TGI [14]: > 100 µM
- GI50 [15]: > 100 µM
- TGI [15]: > 100 µM
- GI50 [16]: > 100 µM
- TGI [16]: > 100 µM
- GI50 [17]: > 100 µM
- TGI [17]: > 100 µM
- GI50 [18]: > 100 µM
- TGI [18]: > 100 µM
- GI50 [19]: > 100 µM
- TGI [19]: > 100 µM
- GI50 [20]: > 100 µM
- TGI [20]: > 100 µM
- GI50 [21]: > 100 µM
- TGI [21]: > 100 µM
- GI50 [22]: > 100 µM
- TGI [22]: > 100 µM
- GI50 [23]: > 100 µM
- TGI [23]: > 100 µM
- GI50 [24]: 22.7 µM
- TGI [24]: > 100 µM
- GI50 [25]: > 100 µM
- TGI [25]: > 100 µM
- GI50 [26]: > 100 µM
- TGI [26]: > 100 µM
- GI50 [27]: > 100 µM
- TGI [27]: > 100 µM
- GI50 [28]: > 100 µM
- TGI [28]: > 100 µM
- GI50 [29]: > 100 µM
- TGI [29]: > 100 µM
- GI50 [30]: > 100 µM
- TGI [30]: > 100 µM
- GI50 [31]: > 100 µM
- TGI [31]: > 100 µM
- GI50 [32]: > 100 µM
- TGI [32]: > 100 µM
- GI50 [33]: > 100 µM
- TGI [33]: > 100 µM
- GI50 [34]: > 100 µM
- TGI [34]: > 100 µM
- GI50 [35]: > 100 µM
- TGI [35]: > 100 µM
- GI50 [36]: > 100 µM
- TGI [36]: > 100 µM
- GI50 [37]: > 100 µM
- TGI [37]: > 100 µM
- GI50 [38]: > 100 µM
- TGI [38]: > 100 µM
- GI50 [39]: > 100 µM
- TGI [39]: > 100 µM
- GI50 [40]: > 100 µM
- TGI [40]: > 100 µM
- GI50 [41]: > 100 µM
- TGI [41]: > 100 µM
- GI50 [42]: > 100 µM
- TGI [42]: > 100 µM
- GI50 [43]: > 100 µM
- TGI [43]: > 100 µM
- GI50 [44]: > 100 µM
- TGI [44]: > 100 µM
- GI50 [45]: > 100 µM
- TGI [45]: > 100 µM
- GI50 [46]: > 100 µM
- TGI [46]: > 100 µM
- GI50 [47]: > 100 µM
- TGI [47]: > 100 µM
- GI50 [48]: 9.79 µM
- TGI [48]: > 100 µM
- GI50 [49]: > 100 µM
- TGI [49]: > 100 µM
- GI50 [50]: > 100 µM
- TGI [50]: > 100 µM
- GI50 [51]: > 100 µM
- TGI [51]: > 100 µM
- GI50 [52]: > 100 µM
- TGI [52]: > 100 µM
- GI50 [53]: > 100 µM
- TGI [53]: > 100 µM
- GI50 [54]: > 100 µM
- TGI [54]: > 100 µM
- GI50 [55]: > 100 µM
- TGI [55]: > 100 µM
- GI50 [56]: > 100 µM
- TGI [56]: > 100 µM
